Values of other authors, collected in US20070077258A1 (priority 2005, published 2007).
Where two headings read alike, the source gives them in different places.

Legend:
[1] = 3 grams of glutathione by oral ingestion
[2] = system: influenza virus in Madin-Darby Canine Kidney (MDCK) Cells
[3] = system: influenza virus in Normal Human Small Airway Epithelial Cells (SAEC)

## N[C@@H](CCC(=O)N[C@@H](CS)C(=O)NCC(=O)O)C(=O)O [glutathione, gamma-glutamyl-cysteinyl-glycine]
[1]
  effect on plasma glutathione levels: does not elevate plasma glutathione levels
1500 mg /m2
  tolerability: well tolerated
2500 mg daily for 5 days
  tolerability: well tolerated
In vivo
  toxicity reported: No toxicity
[2]
  replication of flu virus: prevention of replication of flu virus was demonstrated
[3]
  replication of flu virus: prevention of replication of flu virus was demonstrated
